Structures can show the parent of a compound that is named as a salt.
Assays:
[1] = system: NCI-H292 lung cancer cells; assay: FDA drug screening, complete media vs cholesterol-free media without statin (TABLE 1); format: cell-based, human
[2] = system: NCI-H292 lung cancer cells; assay: FDA drug screening, complete media vs cholesterol-free media with simvastatin (TABLE 2); format: cell-based, human; conditions: for Cholesterol-free media + simvastatin (0.04 μM) / Complete Media: NCI-H292 cells
[3] = Complete minus Cholesterol-free, greater than 0 enhanced anti-cancer activity, about 0 neutral, below 0 antagonist
[4] = NCI-H292 cells, FDA drug library screen, cholesterol-free media without statin
[5] = NCI-H292 cells, FDA drug library screen, complete media
[6] = FDA drug library screen, cholesterol-free media with simvastatin 0.04 μM
[7] = FDA drug library screen, complete media
[8] = complete media minus cholesterol-free media + simvastatin, >0 enhanced anti-cancer activity, about 0 neutral, <0 antagonist
[9] = Complete minus Cholesterol-free, greater than 0 enhanced anti-cancer activity, about 0 neutral, below 0 antagonists
[10] = NCI-H292 cells in cholesterol-free media without statin
[11] = NCI-H292 cells in complete media
[12] = drug in cholesterol-free media with simvastatin 0.04 μM
[13] = complete media vs cholesterol-free media + simvastatin (0.04 μM), >0 enhanced anti-cancer activity, about 0 neutral, <0 antagonist
[14] = Complete minus Cholesterol-free, >0 enhanced anti-cancer activity, about 0 neutral, <0 antagonist
[15] = NCI-H292 cells, cholesterol-free media without statin
[16] = cholesterol-free media with simvastatin 0.04 μM, cell growth value in FDA drug screen
[17] = complete media, cell growth value in FDA drug screen
[18] = NCI-H292 cells, cholesterol-free media without statin, FDA drug library screen
[19] = NCI-H292 cells, complete media, FDA drug library screen
[20] = cholesterol-free media with simvastatin 0.04 μM, FDA drug library screen (TABLE 2)
[21] = complete media, FDA drug library screen (TABLE 2)
[22] = complete media minus cholesterol-free media + simvastatin (0.04 μM), >0 enhanced anti-cancer activity, about 0 neutral, <0 antagonist
[23] = FDA library drug in cholesterol-free media with simvastatin 0.04 μM
[24] = FDA library drug in complete media
[25] = complete vs cholesterol-free media, greater than 0 enhanced anti-cancer activity, about 0 neutral, below 0 antagonists
[26] = complete vs cholesterol-free media, >0 enhanced anti-cancer activity, about 0 neutral, <0 antagonist

Row | Compound | Cholesterol-free media + simvastatin (0.04 μM) [2, 6] | Complete Media [2, 7] | Difference [2, 8] | Difference [2, 13] | Difference [1, 14] | Cholesterol-free [1, 18] | Complete [1, 19] | also measured
1 | CC(=O)NS(=O)(=O)c1ccc(N)cc1 [Sulfacetamide] | 0.6778 | 0.8793 | 0.20 | – | – | – | – | Difference [1, 3]: −0.14; Cholesterol-free [1, 4]: 1.146; Complete [1, 5]: 1.008
2 | COc1cc(O)c(C(=O)Nc2nc(C(=O)NCCN(C(C)C)C(C)C)cs2)cc1OC | – | – | – | −0.25 | – | – | – | Difference [1, 9]: −0.47; Cholesterol-free [1, 10]: 1.419; Complete [1, 11]: 0.9453; Cholesterol-free media + simvastatin (0.04 μM) [2, 12]: 1.16; Complete Media ([2]; drug in complete media): 0.9105
3 | CCC(Cc1c(I)cc(I)c(N)c1I)C(=O)O (centres unmarked) [Iopanoic acid] | 1.115 | 1.353 | 0.24 | – | – | – | – | Difference [1, 3]: −0.10; Cholesterol-free [1, 4]: 1.02; Complete [1, 5]: 0.9191
4 | O=C(O)c1cc(=O)[nH]c(=O)[nH]1 [Orotic acid] | – | – | 0.07 | – | −0.23 | – | – | Cholesterol-free [1, 15]: 1.001; Complete ([1]; NCI-H292 cells, complete media): 0.7657; Cholesterol-free media + simvastatin (0.04 μM) [2, 16]: 1.191; Complete Media [2, 17]: 1.261
5 | Cc1cn([C@@H]2C[C@@H](O)[C@H](CO)O2)c(=O)[nH]c1=O [Telbivudine] | – | – | – | – | −0.03 | 0.8613 | 0.8275 | Cholesterol-free media + simvastatin (0.04 μM) [2, 20]: 0.8748; Complete Media [2, 21]: 0.8605; Difference [2, 22]: −0.01
6 | CCCCNc1cc(C(=O)O)cc(S(N)(=O)=O)c1Oc1ccccc1 [Bumetanide] | – | – | 0.09 | – | 0.04 | 0.6987 | 0.7406 | Cholesterol-free media + simvastatin (0.04 μM) [2, 16]: 1.046; Complete Media [2, 17]: 1.138
7 | Cinepazide (Maleate) | 1.132 | 1.001 | – | – | – | 0.7192 | 1.265 | Difference ([1]; complete vs cholesterol-free media, […]): 0.55; Difference ([2]; complete media vs cholesterol-free media + simvastatin (0.04 μM), […]): −0.13
8 | Dabigatran etexilate (mesylate) | 1.092 | 0.9893 | – | −0.10 | −0.23 | – | – | Cholesterol-free [1, 15]: 1.215; Complete ([1]; NCI-H292 cells, complete media): 0.9831
9 | CS(=O)(=O)c1ccc([C@@H](O)[C@@H](CF)NC(=O)C(Cl)Cl)cc1 [Florfenicol] | 1.137 | 0.997 | – | −0.14 | – | – | – | Difference [1, 3]: −0.13; Cholesterol-free [1, 4]: 0.8542; Complete [1, 5]: 0.7262
10 | O=c1cc[nH]c(=O)[nH]1 [Uracil] | – | – | – | −0.31 | – | – | – | Difference [1, 3]: −0.17; Cholesterol-free [1, 4]: 1.032; Complete [1, 5]: 0.8653; Cholesterol-free media + simvastatin (0.04 μM) [2, 23]: 1.203; Complete Media [2, 24]: 0.8949
11 | CN1CCCN=C1/C=C/c1cccc(O)c1.O=C(O)c1cc2ccccc2c(Cc2c(O)c(C(=O)O)cc3ccccc23)c1O [Oxantel (pamoate)] | 0.9072 | 1.051 | 0.14 | – | – | – | – | Difference [1, 9]: −0.51; Cholesterol-free [1, 10]: 1.526; Complete [1, 11]: 1.019
12 | CCCC[C@H](C)C[C@H](O)/C=C/[C@H]1[C@H](O)CC(=O)[C@@H]1CCCC/C=C/C(=O)O [Limaprost] | – | – | – | −0.24 | – | – | – | Cholesterol-free [1, 15]: 1.4; Complete ([1]; NCI-H292 cells, complete media): 0.949; Difference [1, 25]: −0.45; Cholesterol-free media + simvastatin (0.04 μM) [2, 12]: 1.214; Complete Media ([2]; drug in complete media): 0.9724
13 | CC1(C)S[C@@H]2[C@H](NC(=O)[C@H](N)c3ccc(O)cc3)C(=O)N2[C@H]1C(=O)O [Amoxicillin] | 0.9948 | 1.386 | 0.39 | – | – | 0.9555 | 1.159 | Difference [1, 26]: 0.20
14 | CC(=O)NC(CCC(N)=O)C(=O)O (centres unmarked) [Aceglutamide] | 0.762 | 1.026 | 0.26 | – | – | – | – | Cholesterol-free [1, 15]: 1.178; Complete ([1]; NCI-H292 cells, complete media): 0.7674; Difference [1, 25]: −0.41
15 | O=C(O)c1cc2ccccc2c(Cc2c(O)c(C(=O)O)cc3ccccc23)c1O.OCCOCCN1CCN(C(c2ccccc2)c2ccc(Cl)cc2)CC1 [Hydroxyzine (pamoate)] | 1.16 | 1.053 | – | −0.11 | – | 0.6403 | 0.9622 | Difference [1, 26]: 0.32
16 | O=C(O)CCC(=O)Nc1ccc(S(=O)(=O)Nc2nccs2)cc1 [Succinylsulfathiazole] | – | – | – | – | 0.03 | 0.852 | 0.8836 | Cholesterol-free media + simvastatin (0.04 μM) [2, 20]: 1.231; Complete Media [2, 21]: 1.191; Difference [2, 22]: −0.04
17 | CSc1nc2cc(Cl)c(Oc3cccc(Cl)c3Cl)cc2[nH]1 [Triclabendazole] | – | 1.193 | 0.25 | – | – | – | – | Difference [1, 9]: −0.64; Cholesterol-free [1, 10]: 1.673; Complete [1, 11]: 1.028
18 | CCOC(=O)[C@H](CCc1ccccc1)N[C@H]1CS[C@H](c2cccs2)CN(CC(=O)O)C1=O [Temocapril (hydrochloride)] | – | – | – | – | 0.00 | 0.6068 | 0.6079 | Cholesterol-free media + simvastatin (0.04 μM) [2, 20]: 1.423; Complete Media [2, 21]: 1.436; Difference [2, 22]: 0.01
19 | CC(C)C(=O)Oc1ccc(CO)cc1[C@H](CCN(C(C)C)C(C)C)c1ccccc1 [Fesoterodine] | – | – | – | −0.28 | – | 0.8973 | 1.535 | Difference [1, 26]: 0.64; Cholesterol-free media + simvastatin (0.04 μM) [2, 23]: 1.104; Complete Media [2, 24]: 0.8265
20 | CC[C@H]1OC(=O)[C@H](C)[C@@H](O[C@H]2C[C@@](C)(OC)[C@@H](O)[C@H](C)O2)[C@H](C)[C@@H](O[C@@H]2O[C@H](C)C[C@H](N(C)C)[C@H]2O)[C@](C)(O)C[C@@H](C)[C@@H]2N[C@@H](COCCOC)O[C@H]([C@H]2C)[C@]1(C)O [Dirithromycin] | 1.565 | 1.493 | – | −0.07 | – | 0.918 | 0.9938 | Difference [1, 26]: 0.08
21 | Nc1ccc(S(=O)(=O)Nc2ccnn2-c2ccccc2)cc1 [Sulfaphenazole] | 1.123 | 1.024 | – | −0.10 | – | – | – | Difference [1, 3]: −0.18; Cholesterol-free [1, 4]: 1.174; Complete [1, 5]: 0.9989
22 | COC(=O)c1ccccc1O [Methyl Salicylate] | – | – | 0.07 | – | −0.24 | – | – | Cholesterol-free [1, 15]: 0.9648; Complete ([1]; NCI-H292 cells, complete media): 0.722; Cholesterol-free media + simvastatin (0.04 μM) [2, 16]: 0.8236; Complete Media [2, 17]: 0.8959
23 | C[C@@H](O)[C@H]1C(=O)N2C(C(=O)O)=C([C@H]3CCCO3)S[C@H]12 [Faropenem sodium] | – | – | 0.04 | – | −0.02 | 0.8692 | 0.8522 | Cholesterol-free media + simvastatin (0.04 μM) [2, 16]: 0.9421; Complete Media [2, 17]: 0.984
